For this assay, the target named is T1, USP7 (Homo sapiens, UniProt Q93009).
T1 construct: full length human USP7 protein; made in house
The experiment in a line: USP7, Ub-PLA2 assay. The settings on record: Ub-PLA2 / NBD C6-HPC fluorescence, 30 minute preincubation; read-out: EC50 for inhibition of USP7. It is filed as biochemical. The procedure:
The purpose of this assay is to measure the inhibition of USP7 by various compounds of the invention synthesized according to the above-described methods. […] The vehicle control was 100% (v/v) DMSO. 1.6 μL aliquots of the diluted test compound and controls were dispensed into individual wells in a black walled 96 well plate. […] The data were normalized within a plate relative to the control wells using the equation % inhibition=(100−(((RFUcompound−RFUmean NEM) / (RFUmean DMSO−RFUmean NEM))×100)).

Bounds are passed on as bounds.

T1 sequence (Q93009 whole entry): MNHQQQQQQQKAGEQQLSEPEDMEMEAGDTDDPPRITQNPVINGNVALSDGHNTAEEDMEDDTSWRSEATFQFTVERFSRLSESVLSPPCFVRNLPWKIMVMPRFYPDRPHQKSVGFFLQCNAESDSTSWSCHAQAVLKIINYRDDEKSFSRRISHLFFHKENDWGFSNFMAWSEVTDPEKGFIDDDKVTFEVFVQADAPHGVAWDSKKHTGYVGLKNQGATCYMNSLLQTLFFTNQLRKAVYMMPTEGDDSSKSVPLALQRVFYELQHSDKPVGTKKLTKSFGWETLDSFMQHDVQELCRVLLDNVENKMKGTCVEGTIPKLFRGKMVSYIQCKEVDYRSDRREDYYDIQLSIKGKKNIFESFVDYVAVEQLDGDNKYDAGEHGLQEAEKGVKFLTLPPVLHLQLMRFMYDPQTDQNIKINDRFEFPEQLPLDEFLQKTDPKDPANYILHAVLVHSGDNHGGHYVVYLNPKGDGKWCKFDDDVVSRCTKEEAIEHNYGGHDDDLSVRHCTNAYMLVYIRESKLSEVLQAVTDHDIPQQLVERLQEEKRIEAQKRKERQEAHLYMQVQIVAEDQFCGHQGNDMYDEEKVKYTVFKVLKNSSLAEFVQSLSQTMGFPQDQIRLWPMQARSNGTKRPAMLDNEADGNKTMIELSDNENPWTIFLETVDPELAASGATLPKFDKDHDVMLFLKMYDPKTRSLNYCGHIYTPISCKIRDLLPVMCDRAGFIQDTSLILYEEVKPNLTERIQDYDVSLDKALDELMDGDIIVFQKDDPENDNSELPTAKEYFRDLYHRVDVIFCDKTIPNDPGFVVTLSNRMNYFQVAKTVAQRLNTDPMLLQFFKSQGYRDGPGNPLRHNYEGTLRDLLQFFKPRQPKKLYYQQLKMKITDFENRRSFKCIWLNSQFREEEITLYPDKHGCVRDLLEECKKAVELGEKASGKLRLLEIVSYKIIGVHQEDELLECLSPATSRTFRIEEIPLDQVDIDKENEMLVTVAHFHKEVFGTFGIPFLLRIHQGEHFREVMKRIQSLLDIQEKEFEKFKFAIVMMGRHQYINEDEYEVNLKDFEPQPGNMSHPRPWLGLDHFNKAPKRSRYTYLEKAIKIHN

With `CC(=O)c1cc([N+](=O)[O-])c(Sc2nccn2C)s1` [Example 15, 1-[5-(1-methylimidazol-2-yl)sulfanyl-4-nitro-2-thienyl]ethanone], the EC50 is 1000 to 10000 nM. Take `CC(=O)c1cc([N+](=O)[O-])c(S(=O)(=O)c2ccc(Cl)cc2Cl)s1` [Example 35, 1-[5-(2,4-dichlorophenyl)sulfonyl-4-nitro-2-thienyl]ethanone]: the concentration for a half-maximal effect (EC50) is 1000 to 10000 nM. With `CC(=O)c1cc([N+](=O)[O-])c(Sc2c(Cl)c[n+]([O-])cc2Cl)s1` [Example 18, 1-[5-(3,5-dichloro-1-oxido-pyridin-1-ium-4-yl)sulfanyl-4-nitro-2-thienyl]ethanone] the figure was 1000 to 10000 nM; with `O=C(NCc1cccc(OC(F)F)c1)c1cc([N+](=O)[O-])c(Sc2c(Cl)cncc2Cl)s1` [Example 145, 5-((3,5-dichloropyridin-4-yl)thio)-N-(3-(difluoromethoxy)benzyl)-4-nitrothiophene-2-carboxamide], no more than 1000 nM. Turning to `O=C(Nc1ccccc1Cl)c1cc([N+](=O)[O-])c(Sc2c(Cl)cncc2Cl)s1` [Example 134, N-(2-chlorophenyl)-5-((3,5-dichloropyridin-4-yl)thio)-4-nitrothiophene-2-carboxamide], the EC50 was no more than 1000 nM. `CC(=O)N1CCC(NC(=O)c2cc([N+](=O)[O-])c(Sc3c(Cl)cncc3Cl)s2)CC1` [Example 232, N-(1-acetylpiperidin-4-yl)-5-((3,5-dichloropyridin-4-yl)thio)-4-nitrothiophene-2-carboxamide]: the EC50 fell in the range of 1000 to 10000 nM. Regarding `Cc1cccc(CNC(=O)c2cc([N+](=O)[O-])c(Sc3c(Cl)cncc3Cl)s2)c1` [Example 150, 5-((3,5-dichloropyridin-4-yl)thio)-N-(3-methylbenzyl)-4-nitrothiophene-2-carboxamide], the EC50 was no more than 1000 nM. As for `O=C(Nc1ccc(Cl)cc1Cl)c1cc([N+](=O)[O-])c(Sc2c(Cl)cncc2Cl)s1` [Example 141, N-(2,4-dichlorophenyl)-5-((3,5-dichloropyridin-4-yl)thio)-4-nitrothiophene-2-carboxamide], the EC50 was no more than 1000 nM. For the molecule `CN1CCC(CNC(=O)c2cc([N+](=O)[O-])c(Sc3c(Cl)cncc3Cl)s2)CC1` [Example 190, 5-((3,5-dichloropyridin-4-yl)thio)-N-((1-methylpiperidin-4-yl)methyl)-4-nitrothiophene-2-carboxamide], the EC50 is no more than 1000 nM.

With `CNC(=O)c1cc([N+](=O)[O-])c(Sc2cccc(Cl)c2Cl)s1` [Example 42, 5-(2,3-dichlorophenylsulfanyl)-N-methyl-4-nitrothiophene-2-carboxamide], the concentration giving a half-maximal response (EC50) fell in the range of 1000 to 10000 nM. In the case of `O=C(Nc1cccc(Br)c1)c1cc([N+](=O)[O-])c(Sc2c(Cl)cncc2Cl)s1` [Example 133, N-(3-bromophenyl)-5-((3,5-dichloropyridin-4-yl)thio)-4-nitrothiophene-2-carboxamide], the EC50 was no more than 1000 nM. On to `O=C(NCCCN1CCCCC1)c1cc([N+](=O)[O-])c(Sc2ccc(Cl)cc2Cl)s1` [Example 249, 5-((2,4-dichlorophenyl)thio)-4-nitro-N-(3-(piperidin-1-yl)propyl)thiophene-2-carboxamide], for which the EC50 is 1000 to 10000 nM. With `O=C(NCCCN1CCCCC1)c1cc([N+](=O)[O-])c(Sc2ccc(F)cc2F)s1` [Example 267, 5-((2,4-difluorophenyl)thio)-4-nitro-N-(3-(piperidin-1-yl)propyl)thiophene-2-carboxamide] the figure was greater than 10000 nM; with `CN1CCC(NS(=O)(=O)c2cc([N+](=O)[O-])c(Sc3c(Cl)cncc3Cl)s2)CC1` [Example 246, 5-((3,5-dichloropyridin-4-yl)thio)-N-(1-methylpiperidin-4-yl)-4-nitrothiophene-2-sulfonamide], 1000 to 10000 nM. For `O=C(NC1CCCNC1=O)c1cc([N+](=O)[O-])c(Sc2c(Cl)cncc2Cl)s1` (stereo not drawn) [Example 95, 5-((3,5-dichloropyridin-4-yl)thio)-4-nitro-N-(2-oxopiperidin-3-yl)thiophene-2-carboxamide], the EC50 was in the range of 1000 to 10000 nM. As to `Cc1csc(NC(=O)c2cc([N+](=O)[O-])c(Sc3c(Cl)cncc3Cl)s2)n1` [Example 87, 5-((3,5-dichloropyridin-4-yl)thio)-N-(4-methylthiazol-2-yl)-4-nitrothiophene-2-carboxamide], the EC50 fell in the range of 1000 to 10000 nM. With `CCN1C[C@H](NC(=O)c2cc([N+](=O)[O-])c(Sc3c(Cl)cncc3Cl)s2)[C@@H](OC)C1` [Example 92, 5-((3,5-dichloropyridin-4-yl)thio)-N-((3S,4S)-1-ethyl-4-methoxypyrrolidin-3-yl)-4-nitrothiophene-2-carboxamide] the figure was 1000 to 10000 nM; with `O=C(NC1CN2CCC1CC2)c1cc([N+](=O)[O-])c(Sc2c(Cl)cncc2Cl)s1` (stereo not drawn) [Example 202, 5-((3,5-dichloropyridin-4-yl)thio)-4-nitro-N-(quinuclidin-3-yl)thiophene-2-carboxamide], no more than 1000 nM; with `CN1CCC(NC(=O)c2cc([N+](=O)[O-])c(Sc3c(F)cncc3F)s2)CC1` [Example 256, 5-((3,5-difluoropyridin-4-yl)thio)-N-(1-methylpiperidin-4-yl)-4-nitrothiophene-2-carboxamide], 1000 to 10000 nM.

As for `Cc1ccsc1CNC(=O)c1cc([N+](=O)[O-])c(Sc2c(Cl)cncc2Cl)s1` [Example 56, 5-((3,5-dichloropyridin-4-yl)thio)-N-((3-methylthiophen-2-yl)methyl)-4-nitrothiophene-2-carboxamide], the EC50 fell in the range of 1000 to 10000 nM. With `CC(C)(C)OC(=O)Nc1ccc(NC(=O)c2cc([N+](=O)[O-])c(Sc3c(Cl)cncc3Cl)s2)cc1` [Example 234, tert-butyl (4-(5-((3,5-dichloropyridin-4-yl)thio)-4-nitrothiophene-2-carboxamido)phenyl)carbamate] the figure was no more than 1000 nM; with `CC(O)c1cc([N+](=O)[O-])c(Sc2ccc(Cl)cc2Cl)s1` (stereo not drawn) [Example 26, 1-[5-(2,4-dichlorophenyl)sulfanyl-4-nitro-2-thienyl]ethanol], greater than 10000 nM. `CN1CCN(CCCNC(=O)c2cc([N+](=O)[O-])c(Sc3c(Cl)cncc3Cl)s2)CC1` [Example 65]: the half-maximal effective concentration (EC50) was 1000 to 10000 nM. In the case of `O=C(Nc1ccccc1)c1cc([N+](=O)[O-])c(Sc2c(Cl)cncc2Cl)s1` [Example 116, 5-((3,5-dichloropyridin-4-yl)thio)-4-nitro-N-phenylthiophene-2-carboxamide], the EC50 was no more than 1000 nM. To `O=C(NCCc1ccc(Br)cc1)c1cc([N+](=O)[O-])c(Sc2c(Cl)cncc2Cl)s1` [Example 105, N-(4-bromophenethyl)-5-((3,5-dichloropyridin-4-yl)thio)-4-nitrothiophene-2-carboxamide] belongs no more than 1000 nM; to `CN1CCN(c2ccc(NC(=O)c3cc([N+](=O)[O-])c(Sc4c(Cl)cncc4Cl)s3)cc2)CC1` [Example 79, 5-((3,5-dichloropyridin-4-yl)thio)-N-(4-(4-methylpiperazin-1-yl)phenyl)-4-nitrothiophene-2-carboxamide], 1000 to 10000 nM; to `O=C(NCc1cccc(C(F)(F)F)c1)c1cc([N+](=O)[O-])c(Sc2c(Cl)cncc2Cl)s1` [Example 148, 5-((3,5-dichloropyridin-4-yl)thio)-4-nitro-N-(3-(trifluoromethyl)benzyl)thiophene-2-carboxamide], no more than 1000 nM. As to `O=C(NCCc1cccnc1)c1cc([N+](=O)[O-])c(Sc2c(Cl)cncc2Cl)s1` [Example 108, 5-((3,5-dichloropyridin-4-yl)thio)-4-nitro-N-(2-(pyridin-3-yl)ethyl)thiophene-2-carboxamide], the EC50 is no more than 1000 nM. Regarding `O=C(NCC(=O)N1CCC(F)CC1)c1cc([N+](=O)[O-])c(Sc2c(Cl)cncc2Cl)s1` [Example 216, 5-((3,5-dichloropyridin-4-yl)thio)-N-(2-(4-fluoropiperidin-1-yl)-2-oxoethyl)-4-nitrothiophene-2-carboxamide], the EC50 lay in the range of 1000 to 10000 nM. For `O=C(NCCN1CCN(Cc2ccccc2)CC1)c1cc([N+](=O)[O-])c(Sc2c(Cl)cncc2Cl)s1` [Example 117, N-(2-(4-benzylpiperazin-1-yl)ethyl)-5-((3,5-dichloropyridin-4-yl)thio)-4-nitrothiophene-2-carboxamide], the EC50 is no more than 1000 nM. As to `O=C(NCCC1CCN(Cc2ccccc2)C1)c1cc([N+](=O)[O-])c(Sc2c(Cl)cncc2Cl)s1` (stereo not drawn) [Example 84, N-(2-(1-benzylpyrrolidin-3-yl)ethyl)-5-((3,5-dichloropyridin-4-yl)thio)-4-nitrothiophene-2-carboxamide], the EC50 was greater than 10000 nM. Turning to `CN(C)CCCOc1ccc(NC(=O)c2cc(C#N)c(Sc3c(Cl)cncc3Cl)s2)cc1` [Example 204], the EC50 was in the range of 1000 to 10000 nM. As to `CN1CCC(NC(=O)c2cc([N+](=O)[O-])c(Sc3c(Cl)cncc3Cl)s2)C1` (stereo not drawn) [Example 94, 5-((3,5-dichloropyridin-4-yl)thio)-N-(1-methylpyrrolidin-3-yl)-4-nitrothiophene-2-carboxamide], the concentration giving a half-maximal response (EC50) lay in the range of 1000 to 10000 nM. `O=C(Nc1ccc(F)cc1F)c1cc([N+](=O)[O-])c(Sc2c(Cl)cncc2Cl)s1` [Example 143, 5-((3,5-dichloropyridin-4-yl)thio)-N-(2,4-difluorophenyl)-4-nitrothiophene-2-carboxamide]: the EC50 was no more than 1000 nM.

With `O=C(NCc1ccc2c(c1)CCO2)c1cc([N+](=O)[O-])c(Sc2c(Cl)cncc2Cl)s1` [Example 70, 5-((3,5-dichloropyridin-4-yl)thio)-N-((2,3-dihydrobenzofuran-5-yl)methyl)-4-nitrothiophene-2-carboxamide], the EC50 was 1000 to 10000 nM. For the molecule `COC(=O)c1ccc(CNC(=O)c2cc([N+](=O)[O-])c(Sc3c(Cl)cncc3Cl)s2)cc1` [Example 163, methyl 4-((5-((3,5-dichloropyridin-4-yl)thio)-4-nitrothiophene-2-carboxamido)methyl)benzoate], the EC50 was no more than 1000 nM.

Source of the values: US8680139B2 (Progenra, priority 2009, dated 2014).
